According to the NIST ThermoML archive (doi:10.1021/je049691v):

Experiment: xn = mol fraction of the nth substance listed
Conditions: Liquid

CO [methanol] + O
Conditions	mass density [kg/m3]
283.15 K, x2 = 0.08	813.74
283.15 K, x2 = 0.1581	827.14
283.15 K, x2 = 0.2401	842.01
283.15 K, x2 = 0.3206	857.15
283.15 K, x2 = 0.3987	872.39
283.15 K, x2 = 0.4799	888.59
283.15 K, x2 = 0.56	905.16
283.15 K, x2 = 0.6407	922.05
283.15 K, x2 = 0.7201	938.63
283.15 K, x2 = 0.8	954.82
283.15 K, x2 = 0.8801	970.45
283.15 K, x2 = 0.9603	988.05
288.15 K, x2 = 0.08	809.22
288.15 K, x2 = 0.1581	822.75
288.15 K, x2 = 0.2401	837.75
288.15 K, x2 = 0.3206	853.02
288.15 K, x2 = 0.3987	868.39
288.15 K, x2 = 0.4799	884.77
288.15 K, x2 = 0.56	901.56
288.15 K, x2 = 0.6407	918.74
288.15 K, x2 = 0.7201	935.71
288.15 K, x2 = 0.8	952.47
288.15 K, x2 = 0.8801	968.91
288.15 K, x2 = 0.9603	987.31
293.15 K, x2 = 0.08	804.67
293.15 K, x2 = 0.1581	818.33
293.15 K, x2 = 0.2401	833.45
293.15 K, x2 = 0.3206	848.84
293.15 K, x2 = 0.3987	864.35
293.15 K, x2 = 0.4799	880.88
293.15 K, x2 = 0.56	897.88
293.15 K, x2 = 0.6407	915.33
293.15 K, x2 = 0.7201	932.67
293.15 K, x2 = 0.8	949.98
293.15 K, x2 = 0.8801	967.17
293.15 K, x2 = 0.9603	986.29
298.15 K, x2 = 0.08	800.1
298.15 K, x2 = 0.1581	813.88
298.15 K, x2 = 0.2401	829.11
298.15 K, x2 = 0.3206	844.62
298.15 K, x2 = 0.3987	860.25
298.15 K, x2 = 0.4799	876.94
298.15 K, x2 = 0.56	894.14
298.15 K, x2 = 0.6407	911.85
298.15 K, x2 = 0.7201	929.54
298.15 K, x2 = 0.8	947.37
298.15 K, x2 = 0.8801	965.23
298.15 K, x2 = 0.9603	985.01
303.15 K, x2 = 0.08	795.52
303.15 K, x2 = 0.1581	809.4
303.15 K, x2 = 0.2401	824.74
303.15 K, x2 = 0.3206	840.35
303.15 K, x2 = 0.3987	856.1
303.15 K, x2 = 0.4799	872.93
303.15 K, x2 = 0.56	890.32
303.15 K, x2 = 0.6407	908.28
303.15 K, x2 = 0.7201	926.31
303.15 K, x2 = 0.8	944.61
303.15 K, x2 = 0.8801	963.12
303.15 K, x2 = 0.9603	983.49
308.15 K, x2 = 0.08	790.9
308.15 K, x2 = 0.1581	804.88
308.15 K, x2 = 0.2401	820.31
308.15 K, x2 = 0.3206	836.03
308.15 K, x2 = 0.3987	851.89
308.15 K, x2 = 0.4799	868.86
308.15 K, x2 = 0.56	886.42
308.15 K, x2 = 0.6407	904.62
308.15 K, x2 = 0.7201	922.97
308.15 K, x2 = 0.8	941.73
308.15 K, x2 = 0.8801	960.83
308.15 K, x2 = 0.9603	981.76
313.15 K, x2 = 0.08	786.24
313.15 K, x2 = 0.1581	800.3
313.15 K, x2 = 0.2401	815.84
313.15 K, x2 = 0.3206	831.64
313.15 K, x2 = 0.3987	847.61
313.15 K, x2 = 0.4799	864.71
313.15 K, x2 = 0.56	882.44
313.15 K, x2 = 0.6407	900.87
313.15 K, x2 = 0.7201	919.53
313.15 K, x2 = 0.8	938.72
313.15 K, x2 = 0.8801	958.38
313.15 K, x2 = 0.9603	979.82
318.15 K, x2 = 0.08	781.54
318.15 K, x2 = 0.1581	795.69
318.15 K, x2 = 0.2401	811.3
318.15 K, x2 = 0.3206	827.2
318.15 K, x2 = 0.3987	843.26
318.15 K, x2 = 0.4799	860.49
318.15 K, x2 = 0.56	878.38
318.15 K, x2 = 0.6407	897.03
318.15 K, x2 = 0.7201	915.98
318.15 K, x2 = 0.8	935.58
318.15 K, x2 = 0.8801	955.76
318.15 K, x2 = 0.9603	977.69
323.15 K, x2 = 0.08	776.8
323.15 K, x2 = 0.1581	791.04
323.15 K, x2 = 0.2401	806.71
323.15 K, x2 = 0.3206	822.69
323.15 K, x2 = 0.3987	838.85
323.15 K, x2 = 0.4799	856.2
323.15 K, x2 = 0.56	874.24
323.15 K, x2 = 0.6407	893.1
323.15 K, x2 = 0.7201	912.32
323.15 K, x2 = 0.8	932.31
323.15 K, x2 = 0.8801	952.99
323.15 K, x2 = 0.9603	975.39
328.15 K, x2 = 0.08	772.01
328.15 K, x2 = 0.1581	786.32
328.15 K, x2 = 0.2401	802.07
328.15 K, x2 = 0.3206	818.11
328.15 K, x2 = 0.3987	834.36
328.15 K, x2 = 0.4799	851.82
328.15 K, x2 = 0.56	870.01
328.15 K, x2 = 0.6407	889.07
328.15 K, x2 = 0.7201	908.56
328.15 K, x2 = 0.8	928.92
328.15 K, x2 = 0.8801	950.06
328.15 K, x2 = 0.9603	972.92
333.15 K, x2 = 0.08	767.16
333.15 K, x2 = 0.1581	781.54
333.15 K, x2 = 0.2401	797.35
333.15 K, x2 = 0.3206	813.44
333.15 K, x2 = 0.3987	829.79
333.15 K, x2 = 0.4799	847.36
333.15 K, x2 = 0.56	865.69
333.15 K, x2 = 0.6407	884.94
333.15 K, x2 = 0.7201	904.69
333.15 K, x2 = 0.8	925.41
333.15 K, x2 = 0.8801	947
333.15 K, x2 = 0.9603	970.28
338.15 K, x2 = 0.08	762.24
338.15 K, x2 = 0.1581	776.67
338.15 K, x2 = 0.2401	792.56
338.15 K, x2 = 0.3206	808.71
338.15 K, x2 = 0.3987	825.13
338.15 K, x2 = 0.4799	842.81
338.15 K, x2 = 0.56	861.28
338.15 K, x2 = 0.6407	880.72
338.15 K, x2 = 0.7201	900.71
338.15 K, x2 = 0.8	921.77
338.15 K, x2 = 0.8801	943.79
338.15 K, x2 = 0.9603	967.5
343.15 K, x2 = 0.08	757.24
343.15 K, x2 = 0.1581	771.74
343.15 K, x2 = 0.2401	787.68
343.15 K, x2 = 0.3206	803.91
343.15 K, x2 = 0.3987	820.39
343.15 K, x2 = 0.4799	838.17
343.15 K, x2 = 0.56	856.77
343.15 K, x2 = 0.6407	876.4
343.15 K, x2 = 0.7201	896.64
343.15 K, x2 = 0.8	918.02
343.15 K, x2 = 0.8801	940.45
343.15 K, x2 = 0.9603	964.57
348.15 K, x2 = 0.08	752.17
348.15 K, x2 = 0.1581	766.72
348.15 K, x2 = 0.2401	782.71
348.15 K, x2 = 0.3206	799
348.15 K, x2 = 0.3987	815.56
348.15 K, x2 = 0.4799	833.44
348.15 K, x2 = 0.56	852.18
348.15 K, x2 = 0.6407	871.97
348.15 K, x2 = 0.7201	892.45
348.15 K, x2 = 0.8	914.14
348.15 K, x2 = 0.8801	936.97
348.15 K, x2 = 0.9603	961.5
353.15 K, x2 = 0.08	747.01
353.15 K, x2 = 0.1581	761.6
353.15 K, x2 = 0.2401	777.65
353.15 K, x2 = 0.3206	794
353.15 K, x2 = 0.3987	810.62
353.15 K, x2 = 0.4799	828.62
353.15 K, x2 = 0.56	847.48
353.15 K, x2 = 0.6407	867.48
353.15 K, x2 = 0.7201	888.15
353.15 K, x2 = 0.8	910.15
353.15 K, x2 = 0.8801	933.37
353.15 K, x2 = 0.9603	958.3
